Test results as given in US20160318987A1 (MEDIMMUNE LIMITED, priority 2013, published 2016).
Where a SMILES comes first, the peptide text is derived from it. [ ]: non-standard residue; d: D form. αMeF = C[C@](N)(Cc1ccccc1)C(=O)O; Aib = CC(C)(N)C(=O)O

How the values were obtained:
[1] = target: T1, hGLP-1R (Homo sapiens, UniProt P43220); assay: cAMP functional assay, cells expressing human GLP-1 receptor (primary assay); type: cell-based
T1 construct: expressed in transfected cells

[2] = target: T2, hGIP-R (Homo sapiens, UniProt P48546); assay: cAMP functional assay, cells expressing human GIP receptor (primary assay); type: cell-based; conditions: n = 2
T2 construct: expressed in transfected cells
T2 sequence (P48546 22-466): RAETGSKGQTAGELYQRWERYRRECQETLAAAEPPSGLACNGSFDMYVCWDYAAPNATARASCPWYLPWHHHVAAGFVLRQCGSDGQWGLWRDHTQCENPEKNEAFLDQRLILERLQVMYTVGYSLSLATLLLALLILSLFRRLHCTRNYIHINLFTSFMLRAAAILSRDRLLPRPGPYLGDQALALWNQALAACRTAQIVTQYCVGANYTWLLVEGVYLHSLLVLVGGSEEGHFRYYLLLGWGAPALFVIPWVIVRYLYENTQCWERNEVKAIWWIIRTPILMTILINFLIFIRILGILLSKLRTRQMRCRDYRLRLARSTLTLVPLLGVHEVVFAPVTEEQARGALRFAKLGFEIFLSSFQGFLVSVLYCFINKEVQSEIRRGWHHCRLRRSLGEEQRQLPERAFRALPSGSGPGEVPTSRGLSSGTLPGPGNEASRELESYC

[3] = target: T3, Neprilysin (rhNEP) (Homo sapiens, UniProt P08473); assay: neprilysin stability study (LC/MS); type: in vitro ADME
T3 construct: purchased R&D Systems 1182-ZNC-010
Experimental: (§1) Peptides for evaluation were prepared to a concentration of 1.0 mg/mL solutions in either pure water, sterile saline for injection (0.9% w/v NaCl/water) or 1× PBS (Dulbecco). 100 μL (100 μg/mL peptide) of these solutions was added to 900 μL of each protease solution. Additional experiments were performed examining protein degradation during exposure to serum and gastric fluid. For serum studies, peptides were incubated with 50% female Sprague-Dawley strain rat serum (SD rat serum). For gastric fluid studies, peptides were incubated 1:1 (volume:volume), fresh rat gastric fluid.
(§2) The peptide and enzyme (or serum or gastric fluid) were co-incubated in a temperature regulated water bath at 37° C. for the duration of the experiment. During each experiment 100 μL aliquots (10 μg peptide) of the incubated peptide-enzyme mixture were withdrawn periodically, quenched by addition of an equal volume of 5% TFA (v/v) in 1:1 water/acetonitrile to arrest proteolytic activity, and analyzed by liquid chromatography-mass spectrometry (LC/MS): Agilent Polaris C8-A column (4.6×100 mm, 3 micron) using a linear binary gradient of 10-90% MeCN (0.1% TFA v/v) in water (0.1% TFA v/v) over 30 minutes at 1.5 mL min^−1 at ambient temperature. Analytes were detected by both UV absorption at 210 nm and ionization using a Waters 3100 mass detector (ESI^+ mode). New peptidic species (fragments) derived from enzymatic cleavage of peptides were analyzed post-process, and their molecular masses were used to identify the precise cleavage position (highlighting the scissile bond in each case).

[4] = target: T4, Chymotrypsin (rhCTRC) (Homo sapiens, UniProt Q99895); assay: chymotrypsin stability study (LC/MS); type: in vitro ADME; conditions: chymotrypsin
T4 construct: purchased R&D Systems 6907-SE-010
T4 sequence (Q99895 30-268): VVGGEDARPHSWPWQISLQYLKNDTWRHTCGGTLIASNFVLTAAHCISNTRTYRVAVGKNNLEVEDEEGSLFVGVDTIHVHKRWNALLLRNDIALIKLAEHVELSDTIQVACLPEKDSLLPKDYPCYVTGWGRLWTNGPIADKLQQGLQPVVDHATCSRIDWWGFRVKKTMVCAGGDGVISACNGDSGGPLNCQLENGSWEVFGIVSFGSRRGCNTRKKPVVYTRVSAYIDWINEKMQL
Experimental: as §1, §2

[5] = target: T5, trypsin from porcine pancreas (Sus scrofa, UniProt P00761); assay: trypsin stability study (LC/MS); type: in vitro ADME
T5 construct: purchased Sigma P7409; host or cells: porcine pancreas
Experimental: as §1, §2

[6] = serum stability study (LC/MS); type: in vitro ADME; conditions: female, Sprague-Dawley; 50% SD rat serum, after 60 hours; read-out: peptide remaining intact
Experimental: as §1
as §2, with “New peptidic species (fragments) derived from enzymatic cleavage of peptides were analyzed post-process, and their molecular masses were used to identify the precise cleavage position (highlighting the scissile bond in each case).” left out

T3 sequence (P08473 52-750 limits assumed): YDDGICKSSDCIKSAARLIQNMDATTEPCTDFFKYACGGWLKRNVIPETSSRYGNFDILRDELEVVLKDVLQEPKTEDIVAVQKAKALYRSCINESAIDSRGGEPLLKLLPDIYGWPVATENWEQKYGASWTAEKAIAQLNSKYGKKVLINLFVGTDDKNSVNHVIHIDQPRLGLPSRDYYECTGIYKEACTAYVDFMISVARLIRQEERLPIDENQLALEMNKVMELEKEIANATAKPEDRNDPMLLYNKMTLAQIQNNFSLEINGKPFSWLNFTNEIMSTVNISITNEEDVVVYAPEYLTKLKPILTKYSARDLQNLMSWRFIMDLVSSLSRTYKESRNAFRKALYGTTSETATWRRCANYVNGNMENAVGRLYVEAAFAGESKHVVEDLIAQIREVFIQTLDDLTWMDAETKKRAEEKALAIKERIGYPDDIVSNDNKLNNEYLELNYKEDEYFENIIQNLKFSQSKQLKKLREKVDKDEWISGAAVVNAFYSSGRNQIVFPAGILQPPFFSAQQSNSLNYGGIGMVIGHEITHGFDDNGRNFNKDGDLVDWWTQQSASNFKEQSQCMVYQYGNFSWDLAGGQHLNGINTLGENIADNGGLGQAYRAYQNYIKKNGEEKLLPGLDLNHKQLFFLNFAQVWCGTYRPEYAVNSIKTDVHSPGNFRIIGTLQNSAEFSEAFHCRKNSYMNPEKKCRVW
T1 sequence (P43220 24-463): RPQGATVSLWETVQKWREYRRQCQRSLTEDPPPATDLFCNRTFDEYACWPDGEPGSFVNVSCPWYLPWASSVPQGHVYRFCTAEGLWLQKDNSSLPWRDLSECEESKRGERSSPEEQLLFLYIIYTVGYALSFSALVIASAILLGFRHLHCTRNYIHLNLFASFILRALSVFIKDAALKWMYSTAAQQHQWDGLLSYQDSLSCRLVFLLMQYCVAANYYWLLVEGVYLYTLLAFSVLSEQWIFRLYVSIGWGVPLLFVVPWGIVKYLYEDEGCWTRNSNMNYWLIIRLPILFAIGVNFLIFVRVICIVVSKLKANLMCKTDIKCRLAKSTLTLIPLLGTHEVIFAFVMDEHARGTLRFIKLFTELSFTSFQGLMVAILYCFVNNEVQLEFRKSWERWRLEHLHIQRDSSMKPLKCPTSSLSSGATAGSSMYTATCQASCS
T5 sequence (P00761 9-231): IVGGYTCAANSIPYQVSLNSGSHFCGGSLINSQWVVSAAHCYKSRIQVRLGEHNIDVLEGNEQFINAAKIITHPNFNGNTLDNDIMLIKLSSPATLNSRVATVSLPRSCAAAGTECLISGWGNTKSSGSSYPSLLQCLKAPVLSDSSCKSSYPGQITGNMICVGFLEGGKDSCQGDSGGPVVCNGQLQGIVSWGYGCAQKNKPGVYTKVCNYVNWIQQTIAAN

potency compared to the GLP-1 comparator peptide, SEQ ID NO:4 [1]: equipotent
EC50 ([1]; n = 2): 0.0338 nM
EC50 [2]: 102 nM
Neprilysin resistance (Discussion / Description) ([3]; Table 2 description): fully Neprilysin resistant but
proteolytic degradation over time-course ([3]; neprilysin, 96 hour time-course): no proteolytic degradation
stability after prolonged exposure ([3]; neprilysin, after 10 days (240 hours)): still stable
cleavage site observed [4]: solely at the Leu26/Val27
time by which degradation occurred ([4]; 37° C.): ≤ 48 h
Trypsin resistance/susceptibility (Discussion / Description) ([5]; Table 2 description): Trypsin susceptibility
time by which proteolytic degradation occurred (carboxyl side of Lys20, Lys28 and Arg30) ([5]; trypsin, 37° C.): ≤ 90 min
remaining at 60 h, 100 μg/mL [6]: ~64%
SMILES: CC[C@H](C)[C@H](NC(=O)[C@](C)(Cc1ccccc1)NC(=O)[C@H](CCC(=O)O)NC(=O)[C@H](CCCCN)NC(=O)[C@H](C)NC(=O)[C@H](C)NC(=O)[C@H](CCC(N)=O)NC(=O)CNC(=O)[C@H](CCC(=O)O)NC(=O)[C@H](CC(C)C)NC(=O)[C@](C)(Cc1ccccc1)NC(=O)[C@H](CO)NC(=O)[C@H](CO)NC(=O)[C@@H](NC(=O)[C@H](CC(=O)O)NC(=O)[C@H](CO)NC(=O)[C@@H](NC(=O)[C@](C)(Cc1ccccc1)NC(=O)[C@H](CO)NC(=O)CNC(=O)[C@H](CCC(=O)O)NC(=O)C(C)(C)NC(=O)[C@@H](N)Cc1c[nH]cn1)[C@@H](C)O)C(C)C)C(=O)N[C@@H](C)C(=O)N[C@@](C)(Cc1ccccc1)C(=O)N[C@@H](CC(C)C)C(=O)N[C@H](C(=O)N[C@@H](CCCCN)C(=O)NCC(=O)N[C@@H](CCCNC(=N)N)C(N)=O)C(C)C [SEQ ID NO: 38, H-(Aib)^2-EG-(S)^5-(α-MeF)^6-TSDV^10 SS-(α-MeF)^13-LE^15 GQAAK^20 E-(α-MeF)^22-IA-(α-MeF)^25 LVKGR^30] (H-H[Aib]EGS[αMeF]TSDVSS[αMeF]LEGQAAKE[αMeF]IA[αMeF]LVKGR-NH2)
